Test results as given in patent publication US9951064B2, “Azaindazole compounds as inhibitors of T790M containing EGFR mutants” (Genentech, Inc., priority 2013, dated 2018).

How the values were obtained:
EGFR T790M L858R = molecular target: T1, EGFR T790M L858R (Homo sapiens, UniProt P00533, L858R/T790M); assay: EGFR T790M L858R biochemical assay (Caliper mobility shift); details: 5 μM ATP; apparent Ki (Morrison fit) converted by Cheng-Prusoff, Km of ATP 1.3 μM
T1 construct: purchased Life Technologies PV4879
T1 sequence (P00533 25-1210 T790M/L858R): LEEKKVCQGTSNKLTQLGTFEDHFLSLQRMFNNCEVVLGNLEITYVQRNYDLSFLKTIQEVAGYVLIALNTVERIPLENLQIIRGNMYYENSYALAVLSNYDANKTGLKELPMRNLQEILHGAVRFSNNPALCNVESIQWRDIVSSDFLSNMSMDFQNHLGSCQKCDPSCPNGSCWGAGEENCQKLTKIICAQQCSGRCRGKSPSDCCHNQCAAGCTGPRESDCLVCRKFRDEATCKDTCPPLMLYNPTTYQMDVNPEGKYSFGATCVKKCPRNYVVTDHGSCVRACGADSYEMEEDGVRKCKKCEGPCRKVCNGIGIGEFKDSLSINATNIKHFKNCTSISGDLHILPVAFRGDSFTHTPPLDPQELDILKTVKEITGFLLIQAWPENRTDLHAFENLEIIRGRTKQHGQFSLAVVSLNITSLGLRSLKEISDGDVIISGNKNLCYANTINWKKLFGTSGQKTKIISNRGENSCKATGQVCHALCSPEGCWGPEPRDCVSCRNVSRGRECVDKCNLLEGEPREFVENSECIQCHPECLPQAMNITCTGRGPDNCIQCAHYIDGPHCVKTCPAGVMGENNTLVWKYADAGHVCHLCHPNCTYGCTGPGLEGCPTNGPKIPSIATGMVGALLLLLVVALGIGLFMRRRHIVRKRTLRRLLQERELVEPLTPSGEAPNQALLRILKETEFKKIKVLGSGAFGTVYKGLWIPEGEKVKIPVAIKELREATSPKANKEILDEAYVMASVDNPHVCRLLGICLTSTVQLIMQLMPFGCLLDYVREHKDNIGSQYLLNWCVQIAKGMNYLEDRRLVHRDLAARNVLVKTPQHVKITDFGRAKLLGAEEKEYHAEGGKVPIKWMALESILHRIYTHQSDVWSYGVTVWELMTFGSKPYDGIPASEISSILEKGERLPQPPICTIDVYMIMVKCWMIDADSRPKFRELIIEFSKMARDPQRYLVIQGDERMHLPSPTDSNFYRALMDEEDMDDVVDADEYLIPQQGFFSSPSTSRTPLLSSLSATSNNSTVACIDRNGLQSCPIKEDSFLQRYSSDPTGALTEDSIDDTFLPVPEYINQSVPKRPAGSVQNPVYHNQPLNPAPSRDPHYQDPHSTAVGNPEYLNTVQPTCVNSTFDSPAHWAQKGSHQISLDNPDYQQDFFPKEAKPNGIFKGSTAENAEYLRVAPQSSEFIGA
In short: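 Caliper mobility-shift read-out, electrophoretic separation of substrate from product, after a 30-minute kinase reaction at 22 °C. EDTA at 80 mM terminates each reaction.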

EGFR del746-750 T790M = molecular target: T2, EGFR del746-750 T790M (Homo sapiens, UniProt P00533, DEL746-750/T790M); assay: EGFR del746-750 T790M biochemical assay (Caliper mobility shift); details: 5 μM ATP; apparent Ki (Morrison fit) converted by Cheng-Prusoff, Km of ATP 2.1 μM; read-out: EGFR(T790M/d746-750) Ki
T2 construct: purchased Carna Biosciences 08-528
T2 sequence (P00533 with tags, fused parts or gaps DEL746-750/T790M limits assumed): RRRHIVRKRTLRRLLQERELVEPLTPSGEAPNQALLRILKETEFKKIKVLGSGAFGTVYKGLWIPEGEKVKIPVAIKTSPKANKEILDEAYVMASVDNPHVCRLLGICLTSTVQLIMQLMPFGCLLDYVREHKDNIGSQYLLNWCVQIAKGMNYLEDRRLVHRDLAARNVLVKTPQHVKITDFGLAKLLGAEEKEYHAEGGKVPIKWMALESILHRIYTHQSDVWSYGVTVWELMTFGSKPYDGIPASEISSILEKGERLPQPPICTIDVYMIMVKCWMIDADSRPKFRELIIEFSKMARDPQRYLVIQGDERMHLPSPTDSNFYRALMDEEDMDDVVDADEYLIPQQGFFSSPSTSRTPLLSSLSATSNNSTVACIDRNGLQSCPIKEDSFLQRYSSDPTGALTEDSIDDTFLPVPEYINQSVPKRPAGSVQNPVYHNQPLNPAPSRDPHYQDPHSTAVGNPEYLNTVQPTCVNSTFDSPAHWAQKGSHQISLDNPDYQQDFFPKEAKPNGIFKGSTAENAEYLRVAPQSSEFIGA
In short: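 Caliper mobility-shift read-out, with product electrophoretically resolved from substrate and measured. Reactions were quenched with 80 mM EDTA after 30 min at 22 °C.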

[1] = molecular target: T3, phosphor-EGFR in H1975(L585R/T790M) mutant EGFR expressing cells (Homo sapiens, UniProt P00533, L858R/T790M); assay: H1975 pEGFR MSD cellular assay; format: cell-based; details: NCI-H1975 cells, serum starved, 1 hour compound incubation, pEGFR Tyr1068 MSD; read-out: HI975 pEGFR EC50
T3 construct: host or cells: NCI-H1975
T3 sequence (P00533 25-1210 T790M/L858R): as the sequence (P00533 25-1210 T790M/L858R) above
In short: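 Phospho-EGFR read by MSD electrochemiluminescence: capture with anti-pEGFR antibody (overnight, 4° C), detection with SULFO-TAG anti-total EGFR (1 hour, room temperature). Before lysis, H1975 cells starved of serum overnight got compound for 1 hour at 37° C, 0.5% DMSO final. EC50 via four-parameter logistic regression of percent inhibition.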

[2] = tested on: H1975 (EGFR T790M/L858R) cell proliferation; assay: H1975 proliferation assay (Cell Titer-Glo); format: cell-based; details: Homo sapiens, NCI-H1975, 72 h, NCI-H1975 cells, 72 hour incubation, read-out: H1975 antiproliferative EC50
Description: H1975 Proliferation Assays
All cell culture reagents were purchased from Invitrogen/Gibco. Cells are cultured at 37° C. at 5% CO2 and split as recommended by ATCC.

Compound | Ki (EGFR T790M L858R) [nM] | Ki (EGFR del746-750 T790M) [nM] | EC50 [1] [nM] | EC50 [2] [nM]
CC(C)n1nc(N2CCOCC2)c2cnc(Nc3ccnc(NCC(C)(C)S(C)(=O)=O)n3)cc21 [Example 100, N^4-(1-Isopropyl-3-morpholin-4-yl-1H-pyrazolo[4,3-c]pyridin-6-yl)-N^2-(2-methanesulfonyl-2-methylpropyl)pyrimidine-2,4-diamine] | 8.7 | 7.2 | 1060 | 1260
CC(C)n1nc(N2CCCC2=O)c2cnc(Nc3ccnc(-c4cnn(S(=O)(=O)C5CC5)c4)n3)cc21 [Example 106, 1-(6-(2-(1-(Cyclopropylsulfonyl)-1H-pyrazol-4-yl)pyrimidin-4-ylamino)-1-isopropyl-1H-pyrazolo[4,3-c]pyridin-3-yl)pyrrolidin-2-one] | 2.1 | 1.6 | 57.8 | 232
CC(C)n1nc(NC2CCS(=O)(=O)C2)c2cnc(Nc3ccnc(-c4cnn(S(=O)(=O)C5CC5)c4)n3)cc21 (centres unmarked) [Example 107, 3-((6-((2-(1-(Cyclopropylsulfonyl)-1H-pyrazol-4-yl)pyrimidin-4-yl)amino)-1-isopropyl-1H-pyrazolo[4,3-c]pyridin-3-yl)amino)tetrahydrothiophene 1,1-dioxide] | 2 | 1.5 | 386 | 1640
CC1CN(c2nn(C(C)C)c3cc(Nc4ccnc(-c5cnn(S(=O)(=O)C6CC6)c5)n4)ncc23)C(=O)N1 (centres unmarked) [Example 108, 1-(6-(2-(1-(Cyclopropylsulfonyl)-1H-pyrazol-4-yl)pyrimidin-4-ylamino)-1-isopropyl-1H-pyrazolo[4,3-c]pyridin-3-yl)-4-methylimidazolidin-2-one] | 1.9 | 1.7 | 113 | 377
CC(Nc1nn(C(C)C)c2cc(Nc3ccnc(-c4cnn(S(=O)(=O)C5CC5)c4)n3)ncc12)C(N)=O (centres unmarked) [Example 109, 2-(6-(2-(1-(Cyclopropylsulfonyl)-1H-pyrazol-4-yl)pyrimidin-4-ylamino)-1-isopropyl-1H-pyrazolo[4,3-c]pyridin-3-ylamino)propanamide] | 1.8 | 1.3 | 788 | 4620
CC(C)n1nc(N2CC[S+]([O-])CC2)c2cnc(Nc3ccnc(-c4cnn(S(=O)(=O)C5CC5)c4)n3)cc21 [Example 110, 4-(6-((2-(1-(Cyclopropylsulfonyl)-1H-pyrazol-4-yl)pyrimidin-4-yl)amino)-1-isopropyl-1H-pyrazolo[4,3-c]pyridin-3-yl)thiomorpholine 1-oxide] | 1.7 | 1.1 | 162 | 835
CC(C)n1nc(N2CCS(=N)(=O)CC2)c2cnc(Nc3ccnc(-c4cnn(S(=O)(=O)C5CC5)c4)n3)cc21 [Example 111, 4-(6-((2-(1-(Cyclopropylsulfonyl)-1H-pyrazol-4-yl)pyrimidin-4-yl)amino)-1-isopropyl-1H-pyrazolo[4,3-c]pyridin-3-yl)-1-iminothiomorpholine 1-oxide] | 1.7 | 1 | 560 | 949
CC(C)n1nc(N2CCC3(CCNC3=O)C2)c2cnc(Nc3ccnc(-c4cnn(S(=O)(=O)C5CC5)c4)n3)cc21 (centres unmarked) [Example 112, 7-(6-((2-(1-(Cyclopropylsulfonyl)-1H-pyrazol-4-yl)pyrimidin-4-yl)amino)-1-isopropyl-1H-pyrazolo[4,3-c]pyridin-3-yl)-2,7-diazaspiro[4.4]nonan-1-one] | 1.1 | 1 | 62.6 | 740
CC(O)C1CN(c2nn(C(C)C)c3cc(Nc4ccnc(-c5cnn(S(=O)(=O)C6CC6)c5)n4)ncc23)C1 (centres unmarked) [Example 113, 1-(1-(6-(2-(1-(Cyclopropylsulfonyl)-1H-pyrazol-4-yl)pyrimidin-4-ylamino)-1-isopropyl-1H-pyrazolo[4,3-c]pyridin-3-yl)azetidin-3-yl)ethanol] | 0.6 | 0.5 | 27.6 | 266
CC(C)n1nc(N2CC[C@@H](O)C2)c2cnc(Nc3ccnc(-c4cnn(S(=O)(=O)C5CC5)c4)n3)cc21 [Example 114, (R)-1-(6-(2-(1-(Cyclopropylsulfonyl)-1H-pyrazol-4-yl)pyrimidin-4-ylamino)-1-isopropyl-1H-pyrazolo[4,3-c]pyridin-3-yl)pyrrolidin-3-ol] | 0.8 | 0.7 | 5.6 | 190
CC(C)n1nc(N2CCC3(CNC(=O)C3)C2)c2cnc(Nc3ccnc(-c4cnn(S(=O)(=O)C5CC5)c4)n3)cc21 (centres unmarked) [Example 115, 7-(6-((2-(1-(Cyclopropylsulfonyl)-1H-pyrazol-4-yl)pyrimidin-4-yl)amino)-1-isopropyl-1H-pyrazolo[4,3-c]pyridin-3-yl)-2,7-diazaspiro[4.4]nonan-3-one] | 1.1 | 0.9 | 221 | 1790
CC(C)n1nc(NC(=O)C(C)(C)O)c2cnc(Nc3ccnc(-c4cnn(S(=O)(=O)C5CC5)c4)n3)cc21 [Example 116, N-(6-(2-(1-(Cyclopropylsulfonyl)-1H-pyrazol-4-yl)pyrimidin-4-ylamino)-1-isopropyl-1H-pyrazolo[4,3-c]pyridin-3-yl)-2-hydroxy-2-methylpropanamide] | 2.6 | 2 | 629 | 2080
CC(C)n1nc(N2CC(N3CCOCC3)C2)c2cnc(Nc3ccnc(-c4cnn(S(=O)(=O)C5CC5)c4)n3)cc21 [Example 117, N-(2-(1-(Cyclopropylsulfonyl)-1H-pyrazol-4-yl)pyrimidin-4-yl)-1-isopropyl-3-(3-morpholinoazetidin-1-yl)-1H-pyrazolo[4,3-c]pyridin-6-amine] | 1.3 | 1.1 | 54.9 | 432
CCN1CCN(c2nn(C(C)C)c3cc(Nc4ccnc(-c5cnn(S(=O)(=O)C6CC6)c5)n4)ncc23)CC1 [Example 118, N-(2-(1-(Cyclopropylsulfonyl)-1H-pyrazol-4-yl)pyrimidin-4-yl)-3-(4-ethylpiperazin-1-yl)-1-isopropyl-1H-pyrazolo[4,3-c]pyridin-6-amine] | 1.4 | 1.1 | 134 | 1010
CC(C)n1nc(N2CCC3(COC3)C2)c2cnc(Nc3ccnc(-c4cnn(S(=O)(=O)C5CC5)c4)n3)cc21 [Example 120, N-(2-(1-(Cyclopropylsulfonyl)-1H-pyrazol-4-yl)pyrimidin-4-yl)-1-isopropyl-3-(2-oxa-6-azaspiro[3.4]octan-6-yl)-1H-pyrazolo[4,3-c]pyridin-6-amine] | 1.4 | 1.3 | 32.8 | 431
CC(C)n1nc(N2CC(CC#N)C2)c2cnc(Nc3ccnc(-c4cnn(S(=O)(=O)C5CC5)c4)n3)cc21 [Example 121, 2-(1-(6-(2-(1-(Cyclopropylsulfonyl)-1H-pyrazol-4-yl)pyrimidin-4-ylamino)-1-isopropyl-1H-pyrazolo[4,3-c]pyridin-3-yl)azetidin-3-yl)acetonitrile] | 0.8 | 0.7 | 19.6 | 184
CC(C)n1nc(N2CC(C)(CO)C2)c2cnc(Nc3ccnc(-c4cnn(S(=O)(=O)C5CC5)c4)n3)cc21 [Example 122, (1-(6-(2-(1-(Cyclopropylsulfonyl)-1H-pyrazol-4-yl)pyrimidin-4-ylamino)-1-isopropyl-1H-pyrazolo[4,3-c]pyridin-3-yl)-3-methylazetidin-3-yl)methanol] | 1.2 | 1 | 87.8 | 620
